# Data: patent US20220251084A1, “PROGRANULIN MODULATORS AND METHODS OF USING THE SAME” (ARKUDA THERAPEUTICS, priority 2019, published 2022)
# System: progranulin (PGRN) secretion, BV-2 cells
# Test: PGRN assay: progranulin induction cellular assay (ELISA of secreted mouse PGRN)
# Assay type: cell-based
# Settings: Mus musculus, BV-2
# Protocol: Cellular Assays: To measure the efficacy of compounds, a progranulin induction cellular assay in mouse primary microglia (pMG), primary cortical neurons, and BV-2 cell lines is used. BV-2 cells are split the day before plating into a 96 well plate format at approximately 80%. Cells should be plated the day before and allowed for 1 hour attachment period and for 16 hour incubation. […] Standard ELISA kits to measure PGRN are available from vendors such as Adipogen, R&D, and Biovendor.
row,Compound,EC50 [µM]
1,CNC(=O)c1ccc2c(c1)[C@H](c1ccc(F)cc1)N(C(=O)O[C@@H]1CN3CCC1CC3)CC2 [Compound 2065],> 10
2,CS(=O)(=O)c1ccc2c(c1)[C@@H](c1ccc(F)cc1)N(C(=O)O[C@@H]1CN3CCC1CC3)CC2 [Compound 2032],> 10
3,O=C(O[C@@H]1CN2CCC1CC2)N1CCc2ccccc2C1c1ccc2[nH]c(=O)sc2c1 (stereo partly shown) [Compound 2011],> 10

# Same assay, conditions: Mus musculus, BV-2, PGRN assay, Table C; secreted mouse PGRN in cell culture medium, ELISA
row,Compound,EC50 [µM]
1,"Fc1ccc(C2c3ccccc3CCN2C(C[C@@H]2CN3CCC2CC3)C(F)(F)F)cc1 (single isomer, unassigned) [Compound 2132]",3.07
2,"C#CCOCCN1CCC(COC(=O)N2CCc3ccccc3[C@@H]2c2ccc(F)cc2)CC1 [Compound 2196, (1-(2-(prop-2-yn-1-yloxy)ethyl)piperidin-4-yl)methyl (S)-1-(4-fluorophenyl)-3,4-dihydroisoquinoline-2(1H)-carboxylate]",> 10
3,"CN1CC2COC[C@H](C1)C2OC(=O)N1CCc2ccccc2[C@@H]1c1ccc(F)cc1 (stereo partly drawn) [Compound 2144, (S)-((1R,5S,9r)-7-methyl-3-oxa-7-azabicyclo[3.3.1]nonan-9-yl) 1-(4-fluorophenyl)-3,4-dihydroisoquinoline-2(1H)-carboxylate]",1.34
4,O=C(CO[C@@H]1CN2CCC1CC2)N1CCc2ccccc2[C@@H]1c1ccc(F)cc1 [Compound 2009],0.811
5,"CN1[C@H]2COC[C@H]1CC(OC(=O)N1CCc3ccccc3[C@@H]1c1ccc(F)cc1)C2 (single isomer, unassigned) [Compound 2099]",1.88
6,O=C(OCC12CCN(CC1)CC2)N1CCc2ccccc2[C@H]1c1cc(F)c(F)c(F)c1 [Compound 2148],8.83
7,"O=C(OCC12CCN(CC1)CC2)N1CCc2ccccc2[C@@H]1c1cc(F)cc(F)c1 (single isomer, unassigned) [Compound 2140, quinuclidin-4-ylmethyl-1-(3,5-difluorophenyl)-3,4-dihydroisoquinoline-2(1H)-carboxylate]",9.91
8,"O=C([C@H](O)[C@@H]1CN2CCC1CC2)N1CCc2ccccc2[C@@H]1c1ccc(F)cc1 (stereo in doubt) [Compound 2075, 1-((S)-1-(4-fluorophenyl)-3,4-dihydroisoquinolin-2(1H)-yl)-2-hydroxy-2-(quinuclidin-3-yl)ethanone]",0.895
9,"CN1C2COCC1CC(OC(=O)N1CCc3ccccc3[C@@H]1c1ccc(F)cc1)C2 (stereo partly shown) [Compound 2067, (1 S)-9′-methyl-3′-oxa-9′-azabicyclo[3.3.1]nonan-7′-yl-1-(4-fluorophenyl)-3,4-dihydroisoquinoline-2(1H)-carboxylate]",0.24
10,"CN(CC1CCNCC1)C(=O)N1CCc2ccccc2[C@@H]1c1ccc(F)cc1 [Compound 2182, 1-(4-fluorophenyl)-N-methyl-N-(piperidin-4-ylmethyl)-3,4-dihydroisoquinoline-2(1H)-carboxamide]",> 10
11,CN1C[C@@H]2[C@@H](COC(=O)N3CCc4ccccc4[C@@H]3c3ccc(F)cc3)[C@@H]2C1 [Compound 2023],1.18
12,"O=C(CCC1CCNCC1)N1CCc2ccccc2[C@@H]1c1ccc(F)cc1 [Compound 2184, (S)-1-(1-(4-fluorophenyl)-3,4-dihydroisoquinolin-2(1H)-yl)-3-(piperidin-4-yl)propan-1-one]",> 10
13,CN1CCC(COC(=O)N2CCc3ccccc3[C@H]2c2cc(F)c(F)c(F)c2)CC1 [Compound 2143],7.75
14,CN1CCC(F)(COC(=O)N2CCc3ccccc3[C@@H]2c2ccc(F)cc2)CC1 [Compound 2114],0.401
15,O=S(=O)(N[C@@H]1CN2CCC1CC2)N1CCc2ccccc2[C@@H]1c1ccc(F)cc1 [Compound 2010],> 10
16,"CN1C[C@@H]2CC[C@H](OC(=O)N3CCc4ccccc4[C@@H]3c3ccc(F)cc3)[C@@H]2C1 (relative stereo) [Compound 2062, (1 S)-(rel-(3′aR,6′aS)-2′-methyloctahydrocyclopenta[c]pyrrol-4-yl)-1-(4-fluorophenyl)-3,4-dihydroisoquinoline-2(1H)-carboxylate]",1.12
17,CN1CCC(COC(=O)N2CCc3ccccc3[C@@H]2c2cc(F)c(F)c(F)c2)CC1 [Compound 2142],8.49
18,O=C(Nc1ccncc1)N1CCc2ccccc2[C@@H]1c1ccc(F)cc1 [Compound 2151],1.16
19,"CN1CC2COC[C@@H](C1)[C@H]2OC(=O)N1CCc2ccccc2[C@@H]1c1ccc(F)cc1 (single isomer, unassigned) [Compound 2106]",> 10
20,"CN1CCC(COC(=O)N2CCc3ccccc3[C@@H]2c2ccc(F)c(F)c2)CC1 [Compound 2138, (1-methylpiperidin-4-yl)methyl-1-(3,4-difluorophenyl)-3,4-dihydroisoquinoline-2(1H)-carboxylate]",1.21
21,N#Cc1ccc2c(c1)CCN(C(=O)N[C@@H]1CN3CCC1CC3)[C@@H]2c1ccc(F)cc1 [Compound 2015],1.5

# Same assay, conditions: Mus musculus, BV-2, PGRN assay, Table D; secreted mouse PGRN in cell culture medium, ELISA
row,Compound,EC50 [µM]
1,O=C(O[C@@H]1CNCC1(F)F)N1CCc2ccccc2[C@@H]1c1ccc(F)cc1 [Compound 2242],3.95
2,"O=C(NCC1CNC1)N1CCc2ccccc2[C@@H]1c1ccc(F)cc1 [Compound 2257, (S)—N-(azetidin-3-ylmethyl)-1-(4-fluorophenyl)-3,4-dihydroisoquinoline-2(1H)-carboxamide acetate]",0.55
3,"CN(C(=O)N1CCc2ccccc2[C@@H]1c1ccc(F)cc1)[C@@H]1CCCNC1 (single isomer, unassigned) [Compound 2213]",3.53
4,"O=C(N1CC[C@@]2(CNCCO2)C1)N1CCc2ccccc2[C@@H]1c1ccc(F)cc1 (single isomer, unassigned) [Compound 2324]",0.742
5,CN(C)C[C@H]1CCN(C(=O)N2CCc3ccccc3[C@@H]2c2ccc(F)cc2)C1 [Compound 2314],1.66
6,CN1CC[C@@H](NC(=O)N2CCc3ccccc3[C@@H]2c2ccc(F)cc2)C1 [Compound 2245],0.46
7,"NC[C@@H]1CN(C(=O)N2CCc3ccccc3[C@@H]2c2ccc(F)cc2)CCO1 [Compound 2302, ((R)-2-(aminomethyl)morpholino)((S)-1-(4-fluorophenyl)-3,4-dihydroisoquinolin-2(1H)-yl)methanone]",0.16
8,"O=C(N1CC[C@]2(CNCCO2)C1)N1CCc2ccccc2[C@@H]1c1ccc(F)cc1 (single isomer, unassigned) [Compound 2326]",0.189
9,"CN1CC[C@@H](O)[C@H](O)[C@H]1COC(=O)N1CCc2ccccc2[C@@H]1c1ccc(F)cc1 [Compound 2289, ((2R,3R,4R)-3,4-dihydroxy-1-methylpiperidin-2-yl)methyl (S)-1-(4-fluorophenyl)-3,4-dihydroisoquinoline-2(1H)-carboxylate]",> 10
10,O=C(O[C@@H]1CNCCOC1)N1CCc2ccccc2[C@@H]1c1ccc(F)cc1 [Compound 2260],0.73
11,"O=C(N1CC[C@]2(CNCCO2)C1)N1CCc2ccccc2[C@H]1c1ccc(F)cc1 (single isomer, unassigned) [Compound 2325]",4.7
12,CC1(C)CNC[C@H]1OC(=O)N1CCc2ccccc2[C@@H]1c1ccc(F)cc1 [Compound 2292],0.431
13,"CN(C)C[C@@H]1CCN(C(=O)N2CCc3ccccc3[C@@H]2c2ccc(F)cc2)C1 [Compound 2313, ((S)-3-((dimethylamino)methyl)pyrrolidin-1-yl)((S)-1-(4-fluorophenyl)-3,4-dihydroisoquinolin-2(1H)-yl)methanone]",2.94
